Results: patent US10154957B2, “Microneedle device having a peptide therapeutic agent and an amino acid and methods of making and using the same” (3M INNOVATIVE PROPERTIES COMPANY, priority 2011, dated 2018)
Marks after values point to notes of the source that are not given here.

Assay: Percent purity of PTHrP analogue in coating with varying His-HCl concentration, three storage conditions (HPLC)
Format: physicochemical
Conditions: peptide 10 mg/mL in PBS
Description: The protein or polypeptide content in the formulation coated on the microneedle arrays was determined using an Agilent 1100 HPLC system (Agilent Technologies, Wilmington, Del.) equipped with a binary pump, well-plated thermostated autosampler, thermostated column compartment, and a diode array UV detector. A Zorbax 300SB-C8 column (Agilent Technologies, Wilmington, Del.) having a 5 μm particle size and 2.1×150 mm inner diameter was used for the separations. The column was maintained at 50° C. The mobile phase consisted of two eluents. Eluent A was 0.1% TFA (trifluoroacetic acid) in water and eluent B was 0.1% TFA in acetonitrile (Spectrum Chemical, New Brunswick, N.J.). A linear gradient from 80/20 to 50/50 (A/B) was applied over 30 minutes. The flow rate was 0.4 mL/minute and the UV detection wavelength was set at 214 nm. The total run time was 34 minutes and the sample injection volume was 15 μL.
Five sample formulations were prepared containing 10 mg/mL of [Glu^22,25,Leu^23,28,31,Aib^29,Lys^26,30]hPTHrP(1-34)NH2 and varying concentrations of L-histidine monohydrochloride (His-HCl) in PBS. The concentrations of His-HCl in the sample formulations range from 1 mg/mL to 10 mg/mL. A control formulation was also prepared containing 10 mg/mL of [Glu^22,25,Leu^23,28,31,Aib^29,Lys^26,30]hPTHrP(1-34)NH2 in PBS. […] Microneedle arrays were coated with either the sample or the control formulations. The coating was applied by dropwise addition of 40 μL of the formulation to the portion of the array defined by the octagon shaped pattern of microneedles. The flood coated arrays (both sample and control formulation coated) were dried in an oven at 35° C. for 1.5 hours followed by 30° C. for 15 hours.
After drying, the coated arrays were placed in a storage chamber that was maintained at one of three storage conditions: 40° C./96% RH (storage condition A); 25° C./60% RH (storage condition B); or 5° C./ambient RH. The [Glu^22,25,Leu^23,28,31,Aib^29,Lys^26,30]hPTHrP(1-34)NH2 content of the coated arrays was determined following storage in a chamber for 1 day, 3 days, 7 days, 14 days, 21 days, 28 days, and 2 months. The initial [Glu^22,25,Leu^23,28,31,Aib^29,Lys^26,30]hPTHrP(1-34)NH2 content was also determined using freshly coated arrays (both sample and control formulation coated). The arrays used to determine initial content were stored in a refrigerator at about 4° C. and analyzed within one day of being prepared. At the designated time point, an array was taken from the chamber and washed with PBS (3.5 mL) to remove the coating from the array. An aliquot of the resulting wash solution was analyzed for [Glu^22,25,Leu^23,28,31,Aib^29,Lys^26,30]hPTHrP(1-34)NH2 content using the HPLC method described above. The results were quantified against an external standard of [Glu^22,25,Leu^23,28,31,Aib^29,Lys^26,30]hPTHrP(1-34)NH2. At each time point, the percent purity of [Glu^22,25,Leu^23,28,31,Aib^29,Lys^26,30]hPTHrP(1-34)NH2 in the coating was determined by measuring the peak area for [Glu^22,25,Leu^23,28,31,Aib^29,Lys^26,30]hPTHrP(1-34)NH2 in the selected coating and dividing it by the total peak area measured for all [Glu^22,25,Leu^23,28,31,Aib^29,Lys^26,30]hPTHrP(1-34)NH2 related peaks.

Percent Purity of [Glu^22,25, Leu^23,28,31, Aib^29, Lys^26,30]hPTHrP(1-34)NH2 (Histidine-HCl 1 mg/mL, Storage Condition B (25° C./60% RH), 2 months): 98.1%
Percent Purity of [Glu^22,25, Leu^23,28,31, Aib^29, Lys^26,30]hPTHrP(1-34)NH2 (Histidine-HCl 1 mg/mL, Storage Condition B (25° C./60% RH), Day 3): 98.7%
Percent Purity of [Glu^22,25, Leu^23,28,31, Aib^29, Lys^26,30]hPTHrP(1-34)NH2 (Histidine-HCl 1 mg/mL, Storage Condition B (25° C./60% RH), Day 7): 98.8%
Percent Purity of [Glu^22,25, Leu^23,28,31, Aib^29, Lys^26,30]hPTHrP(1-34)NH2 (Histidine-HCl 1 mg/mL, Storage Condition B (25° C./60% RH), Day 14): 98.7%
Percent Purity of [Glu^22,25, Leu^23,28,31, Aib^29, Lys^26,30]hPTHrP(1-34)NH2 (Histidine-HCl 1 mg/mL, Storage Condition B (25° C./60% RH), Day 28): 98.8%
Percent Purity of [Glu^22,25, Leu^23,28,31, Aib^29, Lys^26,30]hPTHrP(1-34)NH2 (Histidine-HCl 1 mg/mL, Storage Condition B (25° C./60% RH), Initial): 99.0%
Percent Purity of [Glu^22,25, Leu^23,28,31, Aib^29, Lys^26,30]hPTHrP(1-34)NH2 (Histidine-HCl 2 mg/mL, Storage Condition A (40° C./96% RH), Day 1): 98.4%
Percent Purity of [Glu^22,25, Leu^23,28,31, Aib^29, Lys^26,30]hPTHrP(1-34)NH2 (Histidine-HCl 2 mg/mL, Storage Condition A (40° C./96% RH), Day 3): 97.5%
Percent Purity of [Glu^22,25, Leu^23,28,31, Aib^29, Lys^26,30]hPTHrP(1-34)NH2 (Histidine-HCl 2 mg/mL, Storage Condition A (40° C./96% RH), Day 7): 83.2%
Percent Purity of [Glu^22,25, Leu^23,28,31, Aib^29, Lys^26,30]hPTHrP(1-34)NH2 (Histidine-HCl 2 mg/mL, Storage Condition A (40° C./96% RH), Day 14): 50.0%
Percent Purity of [Glu^22,25, Leu^23,28,31, Aib^29, Lys^26,30]hPTHrP(1-34)NH2 (Histidine-HCl 2 mg/mL, Storage Condition A (40° C./96% RH), Day 21, the sample for analysis contained insoluble impurities): 36.8^(a) percent
Percent Purity of [Glu^22,25, Leu^23,28,31, Aib^29, Lys^26,30]hPTHrP(1-34)NH2 (Histidine-HCl 2 mg/mL, Storage Condition A (40° C./96% RH), Initial): 99.0%
Percent Purity of [Glu^22,25, Leu^23,28,31, Aib^29, Lys^26,30]hPTHrP(1-34)NH2 (Histidine-HCl 2 mg/mL, Storage Condition B (25° C./60% RH), 2 months): 98.1%
Percent Purity of [Glu^22,25, Leu^23,28,31, Aib^29, Lys^26,30]hPTHrP(1-34)NH2 (Histidine-HCl 2 mg/mL, Storage Condition B (25° C./60% RH), Day 3): 98.8%
Percent Purity of [Glu^22,25, Leu^23,28,31, Aib^29, Lys^26,30]hPTHrP(1-34)NH2 (Histidine-HCl 2 mg/mL, Storage Condition B (25° C./60% RH), Day 7): 98.8%
Percent Purity of [Glu^22,25, Leu^23,28,31, Aib^29, Lys^26,30]hPTHrP(1-34)NH2 (Histidine-HCl 2 mg/mL, Storage Condition B (25° C./60% RH), Day 14): 98.8%
Percent Purity of [Glu^22,25, Leu^23,28,31, Aib^29, Lys^26,30]hPTHrP(1-34)NH2 (Histidine-HCl 2 mg/mL, Storage Condition B (25° C./60% RH), Day 28): 98.9%
Percent Purity of [Glu^22,25, Leu^23,28,31, Aib^29, Lys^26,30]hPTHrP(1-34)NH2 (Histidine-HCl 2 mg/mL, Storage Condition B (25° C./60% RH), Initial): 99.0%
Percent Purity of [Glu^22,25, Leu^23,28,31, Aib^29, Lys^26,30]hPTHrP(1-34)NH2 (Histidine-HCl 3.3 mg/mL, Storage Condition A (40° C./96% RH), Day 1): 98.6%
Percent Purity of [Glu^22,25, Leu^23,28,31, Aib^29, Lys^26,30]hPTHrP(1-34)NH2 (Histidine-HCl 3.3 mg/mL, Storage Condition A (40° C./96% RH), Day 3): 97.8%
Percent Purity of [Glu^22,25, Leu^23,28,31, Aib^29, Lys^26,30]hPTHrP(1-34)NH2 (Histidine-HCl 3.3 mg/mL, Storage Condition A (40° C./96% RH), Day 7): 93.5%
Percent Purity of [Glu^22,25, Leu^23,28,31, Aib^29, Lys^26,30]hPTHrP(1-34)NH2 (Histidine-HCl 3.3 mg/mL, Storage Condition A (40° C./96% RH), Day 14): 58.3%
Percent Purity of [Glu^22,25, Leu^23,28,31, Aib^29, Lys^26,30]hPTHrP(1-34)NH2 (Histidine-HCl 3.3 mg/mL, Storage Condition A (40° C./96% RH), Day 21, the sample for analysis contained insoluble impurities): 78.2^(a) percent
Percent Purity of [Glu^22,25, Leu^23,28,31, Aib^29, Lys^26,30]hPTHrP(1-34)NH2 (Histidine-HCl 3.3 mg/mL, Storage Condition A (40° C./96% RH), Initial): 99.3%
Percent Purity of [Glu^22,25, Leu^23,28,31, Aib^29, Lys^26,30]hPTHrP(1-34)NH2 (Histidine-HCl 3.3 mg/mL, Storage Condition B (25° C./60% RH), 2 months): 98.5%
Percent Purity of [Glu^22,25, Leu^23,28,31, Aib^29, Lys^26,30]hPTHrP(1-34)NH2 (Histidine-HCl 3.3 mg/mL, Storage Condition B (25° C./60% RH), Day 3): 98.9%
Percent Purity of [Glu^22,25, Leu^23,28,31, Aib^29, Lys^26,30]hPTHrP(1-34)NH2 (Histidine-HCl 3.3 mg/mL, Storage Condition B (25° C./60% RH), Day 7): 98.8%
Percent Purity of [Glu^22,25, Leu^23,28,31, Aib^29, Lys^26,30]hPTHrP(1-34)NH2 (Histidine-HCl 3.3 mg/mL, Storage Condition B (25° C./60% RH), Day 14): 98.9%
Percent Purity of [Glu^22,25, Leu^23,28,31, Aib^29, Lys^26,30]hPTHrP(1-34)NH2 (Histidine-HCl 3.3 mg/mL, Storage Condition B (25° C./60% RH), Day 28): 98.8%
Substance: [Glu^22,25,Leu^23,28,31,Aib^29,Lys^26,30]hPTHrP(1-34)NH2
